According to the supplement of paper PMC11061612:

Legend:
Carboplatin = compound: C1CC(C1)(C(=O)[O-])C(=O)[O-].N.N.[Pt+2] [Carboplatin]; details: max 10 µM
Procedure, shortened: (§1)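 Cancer cell lines were seeded in 1536-well plates in 7.5 μl DMEM/F12 or RPMI with 10% FBS, held 24 hours at 37°C and 5% CO2, then dosed for 72 hours (final DMSO typically 0.2%). Viability was read by CellTiter-Glo 2.0 luminescence and scaled between blank-well and DMSO-well means. The single-agent IC50 comes from dose responses fitted to a two-parameter logistic curve with a non-linear mixed effects model.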

AZD5363 = compound: C1CN(CCC1(C(=O)N[C@@H](CCO)C2=CC=C(C=C2)Cl)N)C3=NC=NC4=C3C=CN4 [AZD5363]; details: max 10 µM
Procedure, shortened: as §1

AZD1775 = compound: C=CCn1c(=O)c2cnc(Nc3ccc(N4CCN(C)CC4)cc3)nc2n1-c1cccc(C(C)(C)O)n1 [AZD1775]; details: max 3 µM
Procedure, shortened: as §1

Trametinib = compound: CC(=O)Nc1cccc(-n2c(=O)n(C3CC3)c(=O)c3c(Nc4ccc(I)cc4F)n(C)c(=O)c(C)c32)c1 [Trametinib]; details: max 1 µM
Procedure, shortened: as §1

Paclitaxel = compound: CC(=O)O[C@H]1C(=O)[C@@]2(C)[C@H]([C@H](OC(=O)c3ccccc3)[C@]3(O)C[C@H](OC(=O)[C@H](O)[C@@H](NC(=O)c4ccccc4)c4ccccc4)C(C)=C1C3(C)C)[C@]1(OC(C)=O)CO[C@@H]1C[C@@H]2O [Paclitaxel]; details: max 3 µM
Procedure, shortened: as §1

Palbociclib = compound: CC(=O)c1c(C)c2cnc(Nc3ccc(N4CCNCC4)cn3)nc2n(C2CCCC2)c1=O [Palbociclib]; details: max 10 µM
Procedure, shortened: as §1

AZD1390 = compound: CC(C)n1c(=O)n(C)c2cnc3cc(F)c(-c4ccc(OCCCN5CCCCC5)nc4)cc3c21 [AZD1390]; details: max 0.3 µM
Procedure, shortened: as §1

Venetoclax = compound: CC1(C)CCC(CN2CCN(c3ccc(C(=O)NS(=O)(=O)c4ccc(NCC5CCOCC5)c([N+](=O)[O-])c4)c(Oc4cnc5[nH]ccc5c4)c3)CC2)=C(c2ccc(Cl)cc2)C1 [Venetoclax]; details: max 1 µM
Procedure, shortened: as §1

Dasatinib = compound: CC1=C(C(=CC=C1)Cl)NC(=O)C2=CN=C(S2)NC3=CC(=NC(=N3)C)N4CCN(CC4)CCO [Dasatinib]; details: max 2 µM
Procedure, shortened: as §1

SG3199 = compound: CC1=CN2[C@@H](C1)C=NC3=CC(=C(C=C3C2=O)OC)OCCCCCOC4=C(C=C5C(=C4)N=C[C@@H]6CC(=CN6C5=O)C)OC [SG3199]; details: max 0.001 µM
Procedure, shortened: as §1

AZD2811 = compound: CCN(CCO)CCCOc1ccc2c(Nc3cc(CC(=O)Nc4cccc(F)c4)[nH]n3)ncnc2c1 [AZD2811]; details: max 1 µM
Procedure, shortened: as §1

SN-38 = compound: CCc1c2c(nc3ccc(O)cc13)-c1cc3c(c(=O)n1C2)COC(=O)[C@]3(O)CC [SN-38]; details: max 0.3 µM
Procedure, shortened: as §1

AZD0156 = compound: CN(C)CCCOc1ccc(-c2ccc3ncc4c(c3c2)n(C2CCOCC2)c(=O)n4C)cn1 [AZD0156]; details: max 3 µM
Procedure, shortened: as §1

AZD4320 = compound: CN(CC[C@H](CSC1=CC=CC=C1)NC2=C(C=C(C=C2)S(=O)(=O)NC(=O)C3=CC=C(C=C3)N4CCC(CC4)[C@H](C5=CC=CC=C5C6=CC=C(C=C6)Cl)O)S(=O)(=O)C(F)(F)F)CCO [AZD4320]; details: max 1 µM
Procedure, shortened: as §1

Alisertib = compound: COc1cc(Nc2ncc3c(n2)-c2ccc(Cl)cc2C(c2c(F)cccc2OC)=NC3)ccc1C(=O)O [Alisertib]; details: max 10 µM
Procedure, shortened: as §1

Etoposide = compound: COc1cc([C@@H]2c3cc4c(cc3[C@@H](O[C@@H]3O[C@@H]5CO[C@@H](C)O[C@H]5[C@H](O)[C@H]3O)[C@H]3COC(=O)[C@H]23)OCO4)cc(OC)c1O [Etoposide]; details: max 10 µM
Procedure, shortened: as §1

Gefitinib = compound: COc1cc2ncnc(Nc3ccc(F)c(Cl)c3)c2cc1OCCCN1CCOCC1 [Gefitinib]; details: max 10 µM
Procedure, shortened: as §1

Prexasertib = compound: COc1cccc(OCCCN)c1-c1cc(Nc2cnc(C#N)cn2)n[nH]1 [Prexasertib]; details: max 1 µM
Procedure, shortened: as §1

Doxorubicin = compound: COc1cccc2c1C(=O)c1c(O)c3c(c(O)c1C2=O)C[C@@](O)(C(=O)CO)C[C@@H]3O[C@H]1C[C@H](N)[C@H](O)[C@H](C)O1 [Doxorubicin]; details: max 1 µM
Procedure, shortened: as §1

AZD5153 = compound: COc1nnc2ccc(N3CCC(c4ccc(OCCN5CCN(C)C(=O)[C@H]5C)cc4)CC3)nn12 [AZD5153]; details: max 1 µM
Procedure, shortened: as §1

Lapatinib = compound: CS(=O)(=O)CCNCc1ccc(-c2ccc3ncnc(Nc4ccc(OCc5cccc(F)c5)c(Cl)c4)c3c2)o1 [Lapatinib]; details: max 10 µM
Procedure, shortened: as §1

AZD8186 = compound: C[C@@H](Nc1cc(F)cc(F)c1)c1cc(C(=O)N(C)C)cc2c(=O)cc(N3CCOCC3)oc12 [AZD8186]; details: max 10 µM
Procedure, shortened: as §1

Crizotinib = compound: C[C@@H](Oc1cc(-c2cnn(C3CCNCC3)c2)cnc1N)c1c(Cl)ccc(F)c1Cl [Crizotinib]; details: max 10 µM
Procedure, shortened: as §1

Savolitinib = compound: C[C@@H](c1ccc2nccn2c1)n1nnc2ncc(-c3cnn(C)c3)nc21 [Savolitinib]; details: max 1 µM
Procedure, shortened: as §1

AZD6738 = compound: C[C@@H]1COCCN1C2=NC(=NC(=C2)C3(CC3)[S@](=N)(=O)C)C4=C5C=CNC5=NC=C4 [AZD6738]; details: max 10 µM
Procedure, shortened: as §1

AZD5991 = compound: Cc1c2c(nn1C)CSCc1cc(n(C)n1)CSc1cc(c3ccccc3c1)OCCCc1c(C(=O)O)n(C)c3c-2c(Cl)ccc13 [AZD5991]; details: max 1 µM
Procedure, shortened: as §1

AZD7648 = compound: Cc1cc2ncnn2cc1Nc1ncc2c(n1)n(C1CCOCC1)c(=O)n2C [AZD7648]; details: max 10 µM
Procedure, shortened: as §1

Taselisib = compound: Cc1nc(-c2cn3c(n2)-c2ccc(-c4cnn(C(C)(C)C(N)=O)c4)cc2OCC3)n(C(C)C)n1 [Taselisib]; details: max 10 µM
Procedure, shortened: as §1

Selumetinib = compound: Cn1cnc2c(F)c(Nc3ccc(Br)cc3Cl)c(C(=O)NOCCO)cc21 [Selumetinib]; details: max 10 µM
Procedure, shortened: as §1

SRA737 = compound: N#Cc1cnc(Nc2cc(NC[C@H]3CNCCO3)c(C(F)(F)F)cn2)cn1 [SRA737]; details: max 10 µM
Procedure, shortened: as §1

MK-2206 = compound: NC1(c2ccc(-c3nc4ccn5c(=O)[nH]nc5c4cc3-c3ccccc3)cc2)CCC1 [MK-2206]; details: max 10 µM
Procedure, shortened: as §1

Gemcitabine = compound: Nc1ccn([C@@H]2O[C@H](CO)[C@@H](O)C2(F)F)c(=O)n1 [Gemcitabine]; details: max 0.3 µM
Procedure, shortened: as §1

[1] = compound: O=C(Nc1ccc2[nH]nc(-c3ccncc3)c2c1)[C@@H]1CCN(CC(=O)N2CCN(c3ccc(-c4ncccn4)cc3)CC2)C1; details: max 5 µM
Procedure, shortened: as §1

Olaparib = compound: O=C(c1cc(Cc2n[nH]c(=O)c3ccccc23)ccc1F)N1CCN(C(=O)C2CC2)CC1 [Olaparib]; details: max 10 µM
Procedure, shortened: as §1

5-Fluorouracil = compound: O=c1[nH]cc(F)c(=O)[nH]1 [5-Fluorouracil]; details: max 20 µM
Procedure, shortened: as §1

| Cell Line | IC50, cell viability 72 h (Carboplatin) | IC50, cell viability 72 h (AZD5363) | IC50, cell viability 72 h (AZD1775) | IC50, cell viability 72 h (Trametinib) | IC50, cell viability 72 h (Paclitaxel) | IC50, cell viability 72 h (Palbociclib) | IC50, cell viability 72 h (AZD1390) | IC50, cell viability 72 h (Venetoclax) | IC50, cell viability 72 h (Dasatinib) | IC50, cell viability 72 h (SG3199) | IC50, cell viability 72 h (AZD2811) | IC50, cell viability 72 h (SN-38) | IC50, cell viability 72 h (AZD0156) | IC50, cell viability 72 h (AZD4320) | IC50, cell viability 72 h (Alisertib) | IC50, cell viability 72 h (Etoposide) | IC50, cell viability 72 h (Gefitinib) | IC50, cell viability 72 h (Prexasertib) | IC50, cell viability 72 h (Doxorubicin) | IC50, cell viability 72 h (AZD5153) | IC50, cell viability 72 h (Lapatinib) | IC50, cell viability 72 h (AZD8186) | IC50, cell viability 72 h (Crizotinib) | IC50, cell viability 72 h (Savolitinib) | IC50, cell viability 72 h (AZD6738) | IC50, cell viability 72 h (AZD5991) | IC50, cell viability 72 h (AZD7648) | IC50, cell viability 72 h (Taselisib) | IC50, cell viability 72 h (Selumetinib) | IC50, cell viability 72 h (SRA737) | IC50, cell viability 72 h (MK-2206) | IC50, cell viability 72 h (Gemcitabine) | IC50, cell viability 72 h [1] | IC50, cell viability 72 h (Olaparib) | IC50, cell viability 72 h (5-Fluorouracil) |
| --- | --- | --- | --- | --- | --- | --- | --- | --- | --- | --- | --- | --- | --- | --- | --- | --- | --- | --- | --- | --- | --- | --- | --- | --- | --- | --- | --- | --- | --- | --- | --- | --- | --- | --- | --- |
| CW-2 (Colorectal Carcinoma) | > 10000 nM | > 10000 nM | 2720 nM | > 1000 nM | 1590 nM | > 10000 nM | > 300 nM | > 1000 nM | > 2000 nM | > 1 nM | > 1000 nM | 150 nM | > 3000 nM | > 1000 nM | > 10000 nM | > 10000 nM | > 10000 nM | > 1000 nM | > 1000 nM | 861 nM | > 10000 nM | > 10000 nM | > 10000 nM | > 1000 nM | > 10000 nM | > 1000 nM | > 10000 nM | > 10000 nM | > 10000 nM | > 10000 nM | > 10000 nM | 246 nM | > 5000 nM | > 10000 nM | > 20000 nM |
| M059J (Glioblastoma) | > 10000 nM | > 10000 nM | 933 nM | > 1000 nM | 17.6 nM | > 10000 nM | > 300 nM | > 1000 nM | 1390 nM | > 1 nM | > 1000 nM | 14.1 nM | > 3000 nM | > 1000 nM | 4060 nM | 2590 nM | > 10000 nM | 241 nM | 230 nM | 164 nM | > 10000 nM | > 10000 nM | > 10000 nM | > 1000 nM | > 10000 nM | > 1000 nM | > 10000 nM | > 10000 nM | > 10000 nM | > 10000 nM | > 10000 nM | 90.9 nM | > 5000 nM | > 10000 nM | > 20000 nM |
| MN-60 (B-Lymphoblastic Leukemia) | > 10000 nM | > 10000 nM | > 3000 nM | > 1000 nM | 674 nM | > 10000 nM | > 300 nM | > 1000 nM | > 2000 nM | > 1 nM | > 1000 nM | 14.6 nM | > 3000 nM | > 1000 nM | > 10000 nM | > 10000 nM | > 10000 nM | > 1000 nM | > 1000 nM | 111 nM | > 10000 nM | > 10000 nM | > 10000 nM | > 1000 nM | > 10000 nM | > 1000 nM | > 10000 nM | > 10000 nM | > 10000 nM | > 10000 nM | > 10000 nM | 213 nM | > 5000 nM | > 10000 nM | > 20000 nM |
| KYSE-270 (Esophageal Squamous Cell Carcinoma) | > 10000 nM | > 10000 nM | 665 nM | > 1000 nM | 39.4 nM | > 10000 nM | > 300 nM | > 1000 nM | 506 nM | > 1 nM | > 1000 nM | 10.7 nM | > 3000 nM | > 1000 nM | > 10000 nM | 4580 nM | 8190 nM | 8.06 nM | 424 nM | > 1000 nM | 7840 nM | > 10000 nM | > 10000 nM | > 1000 nM | 4160 nM | > 1000 nM | > 10000 nM | 3470 nM | > 10000 nM | 1400 nM | > 10000 nM | 35.9 nM | > 5000 nM | > 10000 nM | 14900 nM |
| KU812 (Chronic Myelogenous Leukemia) | > 10000 nM | > 10000 nM | 298 nM | 10.5 nM | 17.6 nM | 4050 nM | > 300 nM | > 1000 nM | < 2 nM | > 1 nM | 471 nM | 37.4 nM | > 3000 nM | 267 nM | 701 nM | 9690 nM | > 10000 nM | 20.5 nM | 567 nM | 36.6 nM | > 10000 nM | > 10000 nM | 260 nM | > 1000 nM | 2150 nM | 235 nM | > 10000 nM | > 10000 nM | 260 nM | 9860 nM | 4070 nM | 27.1 nM | 160 nM | > 10000 nM | > 20000 nM |
